Reference: ChEMBL document CHEMBL3286145, “Evaluation of the antiprion activity of 6-aminophenanthridines and related heterocycles” (Eur J Med Chem, 2014)

Assay: Ex vivo antiprion activity against sheep 127S scrapie prion protein infected in mouse MovS6 cells assessed as PK digestion resistant-PrPSc accumulation after 6 days by immunoblot analysis
Type: cell-based
Settings: Ovis aries, MovS6, 144 h
Nc1nc2ccccc2c2c1CCCC2 showed an IC50 of less than 5 µM. Molecule Nc1nc2ccccc2c2ccc(F)cc12 has an IC50 of 15 µM. Work on Nc1nc2ccccc2c2c1CC=CC2 yielded an IC50 of 1.8 µM. With Nc1nc2ccccc2c2ccc(C(F)(F)F)cc12 the IC50 was 10 µM. For Nc1nc2ccccc2c2ccccc12, the IC50 was less than 5 µM. With COc1cc(OC)c2nc(N)c3ccccc3c2c1 the IC50 was less than 1.8 µM. [N-]=[N+]=Nc1ccc2c(c1)c(N)nc1ccccc12 gave an IC50 of 10 µM. With Nc1nc2ccccc2c2cc(F)ccc12 the IC50 was 5 µM. With Nc1nc2ccccc2c2cc([N+](=O)[O-])ccc12 the IC50 was less than 5 µM. Nc1nc2ccccc2c2cccc(F)c12 showed an IC50 greater than 20 µM. Molecule Nc1nc2ccccc2c2ccc([N+](=O)[O-])cc12 has an IC50 of 20 µM. Work on Nc1cccc2c1c(N)nc1ccccc12 yielded an IC50 of 30 µM.
